Measured values from US5210193A, “Piperazine derivatives” (American Cyanamid Company, priority 1990, dated 1993).
Values after ≈ are worked out from the molar mass of the structure shown.

Key:
Test in all cases: in vitro antibacterial MIC, agar plate dilution
Format in all cases: cell-based
[1] = tested on: Escherichia coli CMC 84-11; conditions: Escherichia coli, CMC8411, 18 h, 35° C., read-out: MIC
How it was run: (§1)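 Read-out is visible growth inhibition on Mueller-Hinton agar dilution plates incubated 18 hours at 35° C after inoculation of ~10^4 CFU (Steers device), with MIC reported in mcg/ml.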

[2] = tested on: Acinetobacter calcoaceticus MOR 84-43; conditions: MOR8443, 18 hours, 35° C., read-out: MIC
How it was run: as §1

[3] = tested on: Klebsiella pneumoniae MOR 84-4; conditions: Klebsiella pneumoniae, MOR844, 18 h, 35° C., read-out: MIC
How it was run: as §1

[4] = tested on: Proteus rettgeri CMC 84-41; conditions: Providencia rettgeri, CMC8441, 18 h, 35° C., read-out: MIC
How it was run: as §1

[5] = tested on: Morganella morganii VGH 84-11; conditions: VGH8411, 18 hours, 35° C., read-out: MIC
How it was run: as §1

[6] = tested on: Escherichia coli CMC 84-16; conditions: Escherichia coli, CMC8416, 18 h, 35° C., read-out: MIC
How it was run: as §1

Escherichia coli NAR 311 = conditions: NAR311, 18 hours, 35° C., read-out: MIC
How it was run: as §1

[7] = tested on: Klebsiella oxytoca MOR 84-28; conditions: MOR8428, 18 hours, 35° C.
How it was run: as §1

[8] = tested on: Staphylococcus aureus CMC 83-128; conditions: CMC83128, 18 hours, 35° C., read-out: MIC
How it was run: as §1

[9] = tested on: Serratia marcescens K 84-18; conditions: Serratia marcescens, K8418, 18 h, 35° C., read-out: MIC
How it was run: as §1

[10] = tested on: Staphylococcus epidermidis CMC 83-135; conditions: CMC83135, 18 hours, 35° C., read-out: MIC
How it was run: as §1

[11] = tested on: Serratia marcescens F 0-35; conditions: Serratia marcescens, F035, 18 h, 35° C., read-out: MIC
How it was run: as §1

[12] = tested on: Staphylococcus aureus Smith; conditions: Staphylococcus aureus, 18 h, 35° C., read-out: MIC
How it was run: as §1

[13] = tested on: Enterobacter cloacae K 84-10; conditions: Enterobacter cloacae, K8410, 18 h, 35° C., read-out: MIC
How it was run: as §1

[14] = tested on: Staphylococcus aureus ATCC 25913; conditions: ATCC25913, 18 hours, 35° C.
How it was run: as §1

[15] = tested on: Morganella morganii CMC 84-37; conditions: Morganella morganii, CMC8437, 18 h, 35° C., read-out: MIC
How it was run: as §1

[16] = tested on: Escherichia coli ATCC 25922; conditions: Escherichia coli, ATCC25922, 18 h, 35° C., read-out: MIC
How it was run: as §1

[17] = tested on: Enterobacter cloacae VGH 84-37; conditions: Enterobacter cloacae, VGH8437, 18 h, 35° C., read-out: MIC
How it was run: as §1

[18] = tested on: Pseudomonas aeruginosa LL-1244; conditions: Pseudomonas aeruginosa, LL1244, 18 h, 35° C., read-out: MIC
How it was run: as §1

[19] = tested on: Enterobacter aerogenes VGH 84-36; conditions: Klebsiella aerogenes, VGH8436, 18 hours, 35° C., read-out: MIC
How it was run: as §1

[20] = tested on: Escherichia coli PRNT 311; conditions: PRNT311, 18 hours, 35° C., read-out: MIC
How it was run: as §1

[21] = tested on: Streptococcus faecalis ATTC 29212; conditions: Enterococcus faecalis, ATTC29212, 18 hours, 35° C., read-out: MIC
How it was run: as §1

[22] = tested on: Staphylococcus aureus ATTC 29213; conditions: Staphylococcus aureus, ATTC29213, 18 h, 35° C., read-out: MIC
How it was run: as §1

Klebsiella pneumoniae AD = conditions: Klebsiella pneumoniae, 18 h, 35° C., read-out: MIC
How it was run: as §1

[23] = tested on: Staphylococcus epidermidis VGH 84-40; conditions: VGH8440, 18 hours, 35° C., read-out: MIC
How it was run: as §1

[24] = tested on: Streptococcus faecalis VGH 84-65; conditions: Enterococcus faecalis, VGH8465, 18 h, 35° C., read-out: MIC
How it was run: as §1

[25] = tested on: Staphylococcus Spp saprophiticus VGH 84-50; conditions: 18 hours, 35° C., read-out: MIC
How it was run: as §1

[26] = tested on: Staphylococcus epidermidis IO 83-58; conditions: IO8358, 18 hours, 35° C., read-out: MIC
How it was run: as §1

[27] = tested on: Staphylococcus aureus CMC 83-127; conditions: Staphylococcus aureus, CMC83127, 18 h, 35° C., read-out: MIC
How it was run: as §1

[28] = tested on: Staphylococcus aureus VGH 84-46; conditions: Staphylococcus aureus, VGH8446, 18 h, 35° C., read-out: MIC
How it was run: as §1

[29] = tested on: Staphylococcus aureus VGH 84-45; conditions: Staphylococcus aureus, VGH8445, 18 h, 35° C., read-out: MIC
How it was run: as §1

[30] = tested on: Pseudomonas aeruginosa VGH 84-4; conditions: Pseudomonas aeruginosa, VGH844, 18 h, 35° C., read-out: MIC
How it was run: as §1

| MIC [1] [µg/mL] | MIC [2] [µg/mL] | MIC [3] [µg/mL] | MIC [4] [µg/mL] | MIC [5] [µg/mL] | MIC [6] [µg/mL] | MIC (Escherichia coli NAR 311) [µg/mL] | MIC [7] [µg/mL] | MIC [8] [µg/mL] | MIC [9] [µg/mL] | MIC [10] [µg/mL] | MIC [11] [µg/mL] | MIC [12] [µg/mL] | MIC [13] [µg/mL] | MIC [15] [µg/mL] | MIC [16] [µg/mL] | MIC [17] [µg/mL] | MIC [18] [µg/mL] | MIC [19] [µg/mL] | MIC [20] [µg/mL] | SMILES | further results |
| --- | --- | --- | --- | --- | --- | --- | --- | --- | --- | --- | --- | --- | --- | --- | --- | --- | --- | --- | --- | --- | --- |
| ≤ 0.12 | 2 (≈ 5.19 µM) | 0.25 (≈ 0.649 µM) | 0.25 (≈ 0.649 µM) | 0.25 (≈ 0.649 µM) | ≤ 0.12 | 4 (≈ 10.4 µM) | 0.5 (≈ 1.3 µM) | ≤ 0.12 | 1 (≈ 2.59 µM) | ≤ 0.12 | 1 (≈ 2.59 µM) | ≤ 0.12 | 0.25 (≈ 0.649 µM) | 0.25 (≈ 0.649 µM) | ≤ 0.12 | ≤ 0.12 | 32 (≈ 83 µM) | 0.5 (≈ 1.3 µM) | 0.5 (≈ 1.3 µM) | CCn1cc(C(=O)O)c(=O)c2cc(F)c(N3CCNC(c4ccco4)C3)cc21 (stereo not shown) [Example 28, 1-Ethyl-6-fluoro-7-[3-(2-furanyl)-1-piperazinyl]-1,4-dihydro-4-oxo-3-quinolinecarboxylic acid] | MIC [14]: ≤ 0.12 µg/mL; MIC [21]: 2 µg/mL (≈ 5.19 µM); MIC [22]: 0.25 µg/mL (≈ 0.649 µM); MIC (Klebsiella pneumoniae AD): ≤ 0.12 µg/mL; MIC [23]: ≤ 0.12 µg/mL; MIC [24]: 2 µg/mL (≈ 5.19 µM); MIC [25]: 1 µg/mL (≈ 2.59 µM); MIC [26]: 0.25 µg/mL (≈ 0.649 µM); MIC [27]: ≤ 0.06 µg/mL; MIC [28]: ≤ 0.12 µg/mL; MIC [29]: ≤ 0.06 µg/mL; MIC [30]: 4 µg/mL (≈ 10.4 µM) |
| 0.12 (≈ 0.325 µM) | 1 (≈ 2.71 µM) | 0.5 (≈ 1.35 µM) | 0.5 (≈ 1.35 µM) | 0.12 (≈ 0.325 µM) | 0.06 (≈ 0.162 µM) | 4 (≈ 10.8 µM) | 1 (≈ 2.71 µM) | 2 (≈ 5.42 µM) | 0.5 (≈ 1.35 µM) | 2 (≈ 5.42 µM) | 0.5 (≈ 1.35 µM) | 1 (≈ 2.71 µM) | 0.12 (≈ 0.325 µM) | 0.12 (≈ 0.325 µM) | 0.12 (≈ 0.325 µM) | 0.12 (≈ 0.325 µM) | 16 (≈ 43.3 µM) | 0.5 (≈ 1.35 µM) | 0.12 (≈ 0.325 µM) | CCn1cc(C(=O)O)c(=O)c2c(F)c(F)c(N3CCN(C)CC3)c(F)c21 [Example 85, 1-Ethyl-5,6,8-trifluoro-1,4-dihydro-7-(4-methyl-1-piperazinyl) -4-oxo-3-quinolinecarboxylic acid] | MIC [21]: 8 µg/mL (≈ 21.7 µM); MIC [22]: 2 µg/mL (≈ 5.42 µM); MIC (Klebsiella pneumoniae AD): 0.25 µg/mL (≈ 0.677 µM); MIC [23]: 1 µg/mL (≈ 2.71 µM); MIC [24]: 16 µg/mL (≈ 43.3 µM); MIC [25]: 8 µg/mL (≈ 21.7 µM); MIC [26]: 1 µg/mL (≈ 2.71 µM); MIC [27]: 0.5 µg/mL (≈ 1.35 µM); MIC [28]: 1 µg/mL (≈ 2.71 µM); MIC [29]: 1 µg/mL (≈ 2.71 µM); MIC [30]: 4 µg/mL (≈ 10.8 µM) |
| 8 | > 128 | 32 | 32 | 32 | 4 | > 128 | > 128 | 2 | 128 | 2 | 64 | 1 | 8 | 32 | 16 | 32 | > 128 | 16 | 16 | CCn1cc(C(=O)O)c(=O)c2cc(F)c(N3CCNC(CNC)C3)cc21.Cl.Cl (stereo not shown) [Example 53, 1-Ethyl-6-fluoro-1,4-dihydro-7-[3-[(methylamino)methyl]-1-piperazinyl]-4-oxo-3-quinolinecarboxylic acid, dihydrochloride] | MIC [21]: 32 µg/mL; MIC [22]: 16 µg/mL; MIC (Klebsiella pneumoniae AD): 64 µg/mL; MIC [23]: 4 µg/mL; MIC [24]: 32 µg/mL; MIC [25]: 4 µg/mL; MIC [26]: 4 µg/mL; MIC [27]: 1 µg/mL; MIC [28]: 8 µg/mL; MIC [29]: 16 µg/mL; MIC [30]: > 128 µg/mL |
